Measurements from PubChem BioAssay (NCI).
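Five concentrations, 48 hours, 96-well plates. Here, GI50 denotes the concentration required for 50% inhibition of growth. TGI: total growth inhibition.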

Experiments:
Test in all cases: DTP human tumour cell line panel, 48 h
CAKI-1 renal = system: CAKI-1 renal
HL-60(TB) leukemia = system: HL-60(TB) leukemia
LOX IMVI melanoma = system: LOX IMVI melanoma
HS 578T breast = system: HS 578T breast
OVCAR-3 ovarian = system: OVCAR-3 ovarian
HCT-15 colon = system: HCT-15 colon
HT29 colon = system: HT29 colon
SN12C renal = system: SN12C renal
SK-MEL-28 melanoma = system: SK-MEL-28 melanoma
IGROV1 ovarian = system: IGROV1 ovarian
NCI-H522 lung = system: NCI-H522 lung
MDA-MB-231 breast = system: MDA-MB-231 breast
OVCAR-4 ovarian = system: OVCAR-4 ovarian
DU-145 prostate = system: DU-145 prostate
HCC-2998 colon = system: HCC-2998 colon
HOP-62 NSCLC = system: HOP-62 NSCLC
M14 melanoma = system: M14 melanoma
HOP-92 NSCLC = system: HOP-92 NSCLC
RXF 393 renal = system: RXF 393 renal
RPMI-8226 leukemia = system: RPMI-8226 leukemia
EKVX NSCLC = system: EKVX NSCLC
K-562 leukemia = system: K-562 leukemia
SF-295 CNS = system: SF-295 CNS
TK-10 renal = system: TK-10 renal
SF-268 CNS = system: SF-268 CNS
BT-549 breast = system: BT-549 breast
A549 NSCLC = system: A549 NSCLC
UACC-257 melanoma = system: UACC-257 melanoma
OVCAR-5 ovarian = system: OVCAR-5 ovarian
PC-3 prostate = system: PC-3 prostate
U251 CNS = system: U251 CNS
NCI-H226 lung = system: NCI-H226 lung
MOLT-4 leukemia = system: MOLT-4 leukemia
NCI-H23 lung = system: NCI-H23 lung
UO-31 renal = system: UO-31 renal
UACC-62 melanoma = system: UACC-62 melanoma
MALME-3M melanoma = system: MALME-3M melanoma
CCRF-CEM leukemia = system: CCRF-CEM leukemia
OVCAR-8 ovarian = system: OVCAR-8 ovarian
SW-620 colon = system: SW-620 colon
NCI/ADR-RES ovarian = system: NCI/ADR-RES ovarian
HCT-116 colon = system: HCT-116 colon
SK-MEL-2 melanoma = system: SK-MEL-2 melanoma
MDA-MB-435 = system: MDA-MB-435
A498 renal = system: A498 renal
ACHN renal = system: ACHN renal
786-0 renal = system: 786-0 renal
SNB-75 CNS = system: SNB-75 CNS
KM12 colon = system: KM12 colon

CCCCC#Cc1c(I)n(C2OC(CO[Si](C)(C)C(C)(C)C)C3OC(C)(C)OC32)c(=O)[nH]c1=O (stereo not drawn)
GI50 (CAKI-1 renal): 12.5 µM | TGI (CAKI-1 renal): 25.3 µM | GI50 (HL-60(TB) leukemia): 1.52 µM | TGI (HL-60(TB) leukemia): 4.14 µM | GI50 (LOX IMVI melanoma): 3.39 µM | TGI (LOX IMVI melanoma): > 100 µM | GI50 (HS 578T breast): 11.7 µM | TGI (HS 578T breast): 39.6 µM | GI50 (OVCAR-3 ovarian): 1.53 µM | TGI (OVCAR-3 ovarian): 2.86 µM | GI50 (HCT-15 colon): 2 µM | TGI (HCT-15 colon): > 100 µM | GI50 (HT29 colon): 8.21 µM | TGI (HT29 colon): 22.1 µM | GI50 (SN12C renal): 10.2 µM | TGI (SN12C renal): 22.2 µM | GI50 (SK-MEL-28 melanoma): 1.84 µM | TGI (SK-MEL-28 melanoma): 4.3 µM | GI50 (IGROV1 ovarian): 3.32 µM | TGI (IGROV1 ovarian): 15.4 µM | GI50 (NCI-H522 lung): 0.534 µM | TGI (NCI-H522 lung): 1.95 µM | GI50 (MDA-MB-231 breast): 2.44 µM | TGI (MDA-MB-231 breast): 9.55 µM | GI50 (OVCAR-4 ovarian): 3.84 µM | TGI (OVCAR-4 ovarian): 16.1 µM | GI50 (DU-145 prostate): 3.48 µM | TGI (DU-145 prostate): 12.9 µM | GI50 (HCC-2998 colon): 2.8 µM | TGI (HCC-2998 colon): 16.5 µM | GI50 (HOP-62 NSCLC): 20 µM | TGI (HOP-62 NSCLC): 34.7 µM | GI50 (M14 melanoma): 17.6 µM | TGI (M14 melanoma): 34.8 µM | GI50 (HOP-92 NSCLC): 3.04 µM | TGI (HOP-92 NSCLC): 8.08 µM | GI50 (RXF 393 renal): 1.5 µM | TGI (RXF 393 renal): 5.46 µM | GI50 (RPMI-8226 leukemia): 2.17 µM | TGI (RPMI-8226 leukemia): 5.28 µM | GI50 (EKVX NSCLC): 15.3 µM | TGI (EKVX NSCLC): 28.7 µM | GI50 (K-562 leukemia): 2.02 µM | TGI (K-562 leukemia): 5.02 µM | GI50 (SF-295 CNS): 22 µM | TGI (SF-295 CNS): 51.5 µM | GI50 (TK-10 renal): 4.32 µM | TGI (TK-10 renal): 16.8 µM | GI50 (SF-268 CNS): 10.3 µM | TGI (SF-268 CNS): 22.4 µM | GI50 (BT-549 breast): 14.8 µM | TGI (BT-549 breast): 28.7 µM | GI50 (A549 NSCLC): 16.6 µM | TGI (A549 NSCLC): 34.2 µM | GI50 (UACC-257 melanoma): 3.1 µM | TGI (UACC-257 melanoma): 15.5 µM | GI50 (OVCAR-5 ovarian): 14.4 µM | TGI (OVCAR-5 ovarian): 27.9 µM | GI50 (PC-3 prostate): 2.8 µM | TGI (PC-3 prostate): 10.4 µM | GI50 (U251 CNS): 21.9 µM | TGI (U251 CNS): > 100 µM | GI50 (NCI-H226 lung): 12.7 µM | TGI (NCI-H226 lung): 25.6 µM | GI50 (MOLT-4 leukemia): 1.77 µM | TGI (MOLT-4 leukemia): 4.34 µM | GI50 (NCI-H23 lung): 13 µM | TGI (NCI-H23 lung): 31.3 µM | GI50 (UO-31 renal): 1.53 µM | TGI (UO-31 renal): 11.2 µM | GI50 (UACC-62 melanoma): 11.8 µM | TGI (UACC-62 melanoma): 24 µM | GI50 (MALME-3M melanoma): 5.45 µM | TGI (MALME-3M melanoma): 24.8 µM | GI50 (CCRF-CEM leukemia): 2.64 µM | TGI (CCRF-CEM leukemia): 8.04 µM | GI50 (OVCAR-8 ovarian): 3.73 µM | TGI (OVCAR-8 ovarian): 15.9 µM | GI50 (SW-620 colon): 1.8 µM | TGI (SW-620 colon): 4.15 µM | GI50 (NCI/ADR-RES ovarian): 18.1 µM | TGI (NCI/ADR-RES ovarian): 49.7 µM | GI50 (HCT-116 colon): 5.52 µM | TGI (HCT-116 colon): 17.9 µM | GI50 (SK-MEL-2 melanoma): 1.37 µM | TGI (SK-MEL-2 melanoma): 3.58 µM | GI50 (MDA-MB-435): 14.6 µM | TGI (MDA-MB-435): 29.8 µM | GI50 (A498 renal): 13.3 µM | TGI (A498 renal): 26 µM | GI50 (ACHN renal): 2.29 µM | TGI (ACHN renal): 7.52 µM | GI50 (786-0 renal): 15.4 µM | TGI (786-0 renal): 29 µM | GI50 (SNB-75 CNS): 12.1 µM | TGI (SNB-75 CNS): 24.9 µM | GI50 (KM12 colon): 11.7 µM | TGI (KM12 colon): 24.5 µM
